pIC50: −log10 of the molar value.
Molecular target: KIT kinase (Homo sapiens, UniProt P10721)
Assay: KIT in vitro biochemical kinase study (Caliper EZ Reader)
Details: Caliper mobility shift; read-out: Enzymatic experiment KIT IC50
Procedure: B. KIT/PDGFRA In Vitro Biochemical Kinase Study
1. Preparation of 1-Fold Kinase Buffer and Stop Solution
1.2 stop solution: 100 mM HEPES, pH 7.5, 0.015% Brij-35, 0.2% Coating Reagent #3, 50 mM EDTA
2. Preparation of Compound Solution
2.1 Dilution of Compound Solution
1) The final concentration of the compound solution was 40 μM, and the concentration of the prepared stock solution was 50 times of the final concentration, i.e., 2 mM.
2) 80 μL of 100% DMSO was added to the second well of the 96-well plate, then 20 μL of 10 mM compound solution was added, and thereby 2 mM compound solution was prepared, 60 μL of 100% DMSO was added to other wells, 20 μL of compound was taken from the second well, added to the third well and diluted by 4 times. This serial 4-time dilution was conducted in sequence for the total of 10 concentrations.
2.2 5-Fold Compound Solution Transferred to a Reaction Plate
1) 10 μL of solution was taken from each well of the above 96-well plate and added to another 96-well plate, and 90 μL of kinase buffer was added.
2) 5 μL of solution was taken from the above 96-well plate and added to a 384-well reaction plate.
1) KIT/PDGFRA kinase was added to the 1-fold kinase buffer solution to obtain a 2.5-fold kinase solution.
2) FAM-labeled polypeptide and ATP were added to the 1-fold kinase buffer solution to obtain a 2.5-fold substrate solution.
3) 10 μL of 2.5-fold kinase solution was added to the 384-well reaction plate, which already contained 5 μL of 5-fold compound in 10% DMSO. And the mixed solution was incubated at room temperature for 10 min.
4) 10 μL of 2.5-fold substrate solution was added to the 384-well reaction plate.
5) Kinase reaction and termination: the mixed solution was incubated at 28° C. for a certain period of time, and 25 μL of stop solution was added to stop the reaction.
2.4 Data Reading of Caliper EZ Reader II
2.5 Calculation of Percent Inhibition and IC50
1) Percent conversion data were copied from the Caliper EZ Reader. […]

Sequence of KIT kinase (P10721 26-976): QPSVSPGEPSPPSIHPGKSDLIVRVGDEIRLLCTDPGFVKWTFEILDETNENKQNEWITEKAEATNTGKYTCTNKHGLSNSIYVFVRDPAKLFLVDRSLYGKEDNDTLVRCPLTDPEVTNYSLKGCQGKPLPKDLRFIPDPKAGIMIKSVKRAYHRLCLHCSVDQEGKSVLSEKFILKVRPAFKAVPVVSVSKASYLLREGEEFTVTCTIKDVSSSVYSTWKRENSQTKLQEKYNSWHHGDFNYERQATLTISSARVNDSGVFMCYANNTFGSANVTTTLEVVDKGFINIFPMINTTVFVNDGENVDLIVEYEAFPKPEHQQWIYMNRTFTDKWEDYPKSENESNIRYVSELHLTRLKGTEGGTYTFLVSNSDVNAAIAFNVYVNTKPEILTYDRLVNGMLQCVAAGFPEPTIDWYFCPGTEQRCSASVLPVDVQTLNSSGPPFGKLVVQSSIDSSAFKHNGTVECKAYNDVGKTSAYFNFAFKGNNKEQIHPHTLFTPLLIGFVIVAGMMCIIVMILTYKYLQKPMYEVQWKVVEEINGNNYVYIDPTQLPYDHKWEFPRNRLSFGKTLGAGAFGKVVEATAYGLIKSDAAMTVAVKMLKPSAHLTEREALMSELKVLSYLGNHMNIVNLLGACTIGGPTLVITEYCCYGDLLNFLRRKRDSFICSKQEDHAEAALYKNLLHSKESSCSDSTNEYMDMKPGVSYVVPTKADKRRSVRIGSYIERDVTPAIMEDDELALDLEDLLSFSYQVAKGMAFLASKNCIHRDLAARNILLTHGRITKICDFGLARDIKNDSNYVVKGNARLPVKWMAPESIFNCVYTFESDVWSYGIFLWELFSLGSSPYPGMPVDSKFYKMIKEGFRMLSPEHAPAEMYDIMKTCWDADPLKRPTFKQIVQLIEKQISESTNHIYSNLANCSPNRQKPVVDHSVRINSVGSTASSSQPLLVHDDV

pIC50 | SMILES
7.69 | CCN1CCCn2c1ncc(-c1ccc(Oc3ccnc(-c4cnn(C)c4)c3)c(C)n1)c2=O [Example 4]
6.44 | Cc1nc(-c2cnc3n(c2=O)CCCN3C)ccc1Oc1ccnc(-c2cnn(C)c2)c1 [Example 1, 9-methyl-3-(6-methyl-5-((2-(1-methyl-1H-pyrazol-4-yl)pyridin-4-yl)oxy)pyridin-2-yl)-6,7,8,9-tetrahydro-4H-pyrimido[1,2-a]pyrimidin-4-one]

— patent US11130762B2, “Azaaryl derivative, preparation method therefor, and application thereof for use in pharmacy” (Abbisko Therapeutics Co., Ltd., priority 2017, dated 2021)
